Experimental data published in US7229621B2, “Method to enhance the immunogenicity of an antigen” (Torrey Pines Institute for Molecular Studies, priority 1998, dated 2007).
Several values for one entry are separate records, joined by “and”; a condition that tells them apart may be missing. Equal entries are not always repeated.

Legend:
[1] = system: EL4 tumor cells; assay: EL4 parent tumor growth (negative control tumor) after intravaginal immunization; assay type: in vivo, C57BL/6 mice; settings: SIINFEKL in acetone and dibutyl phthalate intravaginally; EL4 lacks ovalbumin
From the text: The mucous membranes lack the tough barrier posed by the stratum corneum of the skin. […] The EL4 parent tumor cell line, lacking chicken ovalbumin, was used as a negative control; no immunity against the EL4 tumor cells was seen. Thus, the inventors' hypothesis regarding penetration of the stratum corneum was confirmed; the […] peptide was not effectively reaching the immature dendritic cells, known as Langerhans cells, underlying the stratum corneum.

[2] = target: T1, MHC class I molecule K^b (Mus musculus, UniProt P01901); assay: […]:K^b complexes on primary epidermal Langerhans cells in vitro (mAb 25-D1.16 flow cytometry); assay type: cell-based, C57BL/6 mice; settings: 1.5 hrs
T1 construct: endogenous in cells; host or cells: primary epidermal Langerhans cells from C57BL/6 dorsal ear skin explants
T1 sequence (P01901 22-369): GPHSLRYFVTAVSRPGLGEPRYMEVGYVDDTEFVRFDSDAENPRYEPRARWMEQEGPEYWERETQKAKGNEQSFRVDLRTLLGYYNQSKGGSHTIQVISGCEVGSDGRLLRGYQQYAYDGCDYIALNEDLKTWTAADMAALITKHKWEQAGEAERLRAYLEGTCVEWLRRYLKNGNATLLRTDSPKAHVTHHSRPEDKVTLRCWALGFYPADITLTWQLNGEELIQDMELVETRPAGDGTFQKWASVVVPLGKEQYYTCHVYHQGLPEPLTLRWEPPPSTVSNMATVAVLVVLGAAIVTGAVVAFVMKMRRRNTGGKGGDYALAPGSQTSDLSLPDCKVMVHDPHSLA
T1 sequence (P01887 21-119 partner): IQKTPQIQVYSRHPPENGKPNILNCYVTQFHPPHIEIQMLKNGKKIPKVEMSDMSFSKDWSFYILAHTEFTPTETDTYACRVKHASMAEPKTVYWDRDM
From the text: To evaluate the immunogenic potential of various vaccine formulations and delivery methods, an antigen system that permits quantitative determination of the number of specific peptide:MHC complexes expressed on the cell membrane was used. To date, the only direct way to quantitate antigenic epitopes expressed on living cells and recognized by T cells is with the use of monoclonal antibodies (mAbs) specific for individual peptide:MHC complexes. Chicken ovalbumin (OVA) is a 40 kDa protein that has been used for many years as a prototypic experimental antigen for immunologic studies. The OVA257-264 peptide, […] (963 Da), is processed and presented in the peptide-binding groove of the MHC class I molecule K^b. The mAb, 25-D1.16, has specificity for the […]:K^b complex (Porgador et al. 1997 Immunity 6:715–726).
Primary epidermal Langerhans cells were obtained from cultured explants of C57BL/6 dorsal ear skin according to the method of Ortner et al. (Ortner et al. 1996 J. Immunol. Meth. 193:71). Over a period of 72 hrs in culture, Langerhans cells mature and migrate out of the explant, dropping onto the bottom of the culture dish. These cells were harvested and incubated for 1.5 hrs at 37° C. with various concentrations of synthetic […] peptide. The cells were then washed and stained with a FITC-conjugated anti-MHC class II (I-A^b) mAb, as well as with affinity purified and biotinylated 25-D1.16 followed by PE-avidin, and analyzed on a FACScan® flow cytometer. Non-specific binding of immunoglobulin proteins was blocked by pre-incubation and staining of the cells in a mixture of isotype control mAbs (rat IgG2a, rat IgG2b, mouse IgG1 and mouse IgG2a, each at 100–200 μg/ml) and the anti-Fc receptor mAb 2.4G2. Langerhans cells were identified by their characteristic light scatter properties (high forward, moderate side scatter) and exceptionally high levels of MHC class II expression, with the latter used to optimize the light scatter gate for each experiment. Dead cells were excluded from analysis by their uptake of 7AAD (7-amino-actinomycin D).
Each data point represents the mean and S.E. of 3 to 5 independent experiments. […]
As stated previously, whether mature antigen-bearing dendritic cells will be encountered by and activate naive T cells in the lymph node is likely to depend not only on the number of antigen-bearing dendritic cells that enter the node, but also on the density of MHC:peptide complexes expressed on their membranes. To estimate the density of peptide:MHC complexes on the immigrant dendritic cells generated by this procedure, we compared the fluorescence intensity of various cell populations detected by the peptide:MHC-specific mAb, 25-D1.16, using identical staining conditions and flow cytometer settings. The results are shown in Table IV, providing the number of specific peptide:MHC complexes expressed on the plasma membrane of dendritic cells after various treatments in vitro or in vivo.

[3] = system: dendritic cells in draining lymph node; assay: Antigen-bearing dendritic cells in lymph node after aqueous antigen applied to skin with DBP and acetone; assay type: in vivo; settings: aqueous solution applied to the skin with topical DBP and acetone (data not shown)
From the text: Similarly, when an aqueous solution of a […] peptide or OVA protein antigen was applied to the skin along with topical application of the migration inducer, DBP and acetone, no detectable antigen-bearing (i.e., K^b:[…] positive) dendritic cells appeared in the draining lymph node (data not shown).

[4] = system: E.G7-OVA cells; settings: endogenous SIINFEKL, reported by Rotzschke et al. and Malarkannan et al.; cited from earlier work
[5] = system: dendritic cells in draining lymph node; assay: Antigen-bearing dendritic cells in lymph nodes after injection of soluble protein or peptide with or without topical migration inducer; assay type: in vivo, mice
Procedure: The injections were followed 2 hours later by topical application of dibutyl phthalate and acetone to the abdominal skin. The antigen-bearing dendritic cells that had migrated to the draining lymph node two days later were analyzed as described above and are shown in the upper right quadrant of each dot plot.
This was followed 2 hrs later by: A) no further treatment, or B) topical application of dibutyl phthalate and acetone to the abdominal skin. The antigen-bearing dendritic cells that had migrated to the draining lymph node two days later are shown in the upper right quadrant of each dot plot.
As stated previously, whether mature antigen-bearing dendritic cells will be encountered by and activate naive T cells in the lymph node is likely to depend not only on the number of antigen-bearing dendritic cells that enter the node, but also on the density of MHC:peptide complexes expressed on their membranes.

[6] = 144 μg in 150 μl HBSS injected, no further treatment, two days later
[7] = 144 μg injected, topical dibutyl phthalate and acetone 2 hrs later, two days later
[8] = 20 μl of 0.5 mM in HBSS injected, dibutyl phthalate and acetone 2 hours later, two days later
[9] = immigrant Langerhans cells from inguinal lymph nodes 48 hrs after 4.8 μg SIINFEKL injected

Median No. of Complexes/Cell ([2]; 0.1 nM SIINFEKL in vitro): 240 complexes/cell
Median Specific Fl. Intensity ([2]; 0.1 nM SIINFEKL in vitro): 12
Median No. of Complexes/Cell ([2]; 1.0 nM SIINFEKL in vitro): 1,600 complexes/cell
Median Specific Fl. Intensity ([2]; 1.0 nM SIINFEKL in vitro): 80
Median No. of Complexes/Cell ([2]; 10 nM SIINFEKL in vitro): 4,180 complexes/cell
Median Specific Fl. Intensity ([2]; 10 nM SIINFEKL in vitro): 209
Median No. of Complexes/Cell ([2]; 100 nM SIINFEKL in vitro): 11,160 complexes/cell
Median Specific Fl. Intensity ([2]; 100 nM SIINFEKL in vitro): 558
Median No. of Complexes/Cell ([2]; 1 μM SIINFEKL in vitro): 15,200 complexes/cell
Median Specific Fl. Intensity ([2]; 1 μM SIINFEKL in vitro): 760
Sequence: SIINFEKL [eight amino acid peptide OVA257-264 of chicken ovalbumin, tumor-associated peptide antigen presented by K^b]
immunity against EL4 tumor cells [1]: no immunity
antigen-bearing (K^b:SIINFEKL positive) dendritic cells in the draining lymph node [3]: no detectable
Median No. of Complexes/Cell [4]: 88 complexes/cell and 90 complexes/cell and 89^d complexes/cell
Dendritic Cells per Lymph Node [5, 6]: 3,024
K^b:SIINFEKL^+ DC per LymphNode [5, 6]: 504
Total Cells per Lymph Node [5, 6]: 6.3 × 10^6
Dendritic Cells per Lymph Node [5, 7]: 55,912
K^b:SIINFEKL^+ DC per LymphNode [5, 7]: 22,239
Total Cells per Lymph Node ([5]; 20 μl of 0.5 mM in HBSS injected at two sites in abdominal skin, dibutyl phthalate and acetone topically 2 hours later, two days later): 1.1 × 10^7
Dendritic Cells per Lymph Node [5, 8]: 162,628
K^b:SIINFEKL^+ DC per LymphNode [5, 8]: 89,598
Enhancement ([5]; K^b:SIINFEKL+ DC versus HBSS injection): 44×
Enhancement ([5]; SIINFEKL alone (reference)): 1×
increase in the total number of dendritic cells per lymph node ([5]; SIINFEKL injection followed by topical migration/maturation inducer versus without): 18.5 fold
increase in antigen-bearing dendritic cells per lymph node ([5]; SIINFEKL injection with versus without migration/maturation inducer): 44 fold
Median No. of Complexes/Cell [5, 9]: 860 complexes/cell
Median Specific Fl. Intensity [5, 9]: 43
increase in the number of antigen-bearing dendritic cells in the draining lymph nodes ([5]; injection followed by topical induction of migration, two days later): 44 fold
